From ChEMBL document CHEMBL5724914, “Linking interpersonal differences in gut microbiota composition and drug biotransformation activity” (2024)

What was measured:
[1] = (§1) The drug is tested on Z-028 corresponding to mouse gut metagenome with ENA study accession number: PRJEB37062 and ENA sample accession number: ERS12561827 for biotransformation under anaerobic condition. The drug concentrations were measured over 9 timepoints collected between 0 and 24 hours of incubation by liquid-chromatography-coupled mass spectrometry (LC–MS); settings: 2 µM
[2] = as §1, with “Z-025” for “Z-028”, “rabbit” for “mouse”, “ERS12561824” for “ERS12561827”; settings: 2 µM
[3] = as §1, with “Z-022” for “Z-028”, “ERS12561821” for “ERS12561827”; settings: 2 µM
[4] = as §1, with “Z-018” for “Z-028”, “pig” for “mouse”, “ERS12561817” for “ERS12561827”; settings: 2 µM
[5] = as §1, with “Z-005” for “Z-028”, “to” for “to mouse gut”, “ERS12561805” for “ERS12561827”; settings: 2 µM
[6] = as §1, with “Z-003” for “Z-028”, “pig” for “mouse”, “ERS12561803” for “ERS12561827”; settings: 2 µM
[7] = as §1, with “Z-002” for “Z-028”, “rabbit” for “mouse”, “ERS12561802” for “ERS12561827”; settings: 2 µM
[8] = as §1, with “WLS-310” for “Z-028”, “human” for “mouse”, “ERS12561785” for “ERS12561827”; settings: 2 µM
[9] = as §1, with “WLS-086” for “Z-028”, “human” for “mouse”, “ERS12561752” for “ERS12561827”; settings: 2 µM
[10] = as §1, with “WLS-073” for “Z-028”, “human” for “mouse”, “ERS12561749” for “ERS12561827”; settings: 2 µM
[11] = as §1, with “WLS-069” for “Z-028”, “human” for “mouse”, “ERS12561748” for “ERS12561827”; settings: 2 µM
[12] = human gut metagenome, 24 h, 2 µM
[13] = human gut metagenome, 24 h, 2 µM; remark: listed apart in the source
[14] = human gut metagenome, 24 h, 2 µM; remark: listed apart in the source
[15] = human gut metagenome, 24 h, 2 µM; remark: listed apart in the source
[16] = human gut metagenome, 24 h, 2 µM; remark: listed apart in the source
[17] = human gut metagenome, 24 h, 2 µM; remark: listed apart in the source
[18] = human gut metagenome, 24 h, 2 µM; remark: listed apart in the source
[19] = human gut metagenome, 24 h, 2 µM; remark: listed apart in the source
[20] = human gut metagenome, 24 h, 2 µM; remark: listed apart in the source
Note: call rule not given here.

Compound | Bacterial Biotransformation [1] | Bacterial Biotransformation [2] | Bacterial Biotransformation [3] | Bacterial Biotransformation [4] | Bacterial Biotransformation [5] | Bacterial Biotransformation [6] | Bacterial Biotransformation [7] | Bacterial Biotransformation [8] | Bacterial Biotransformation [9] | Bacterial Biotransformation [10] | Bacterial Biotransformation [11] | Bacterial Biotransformation [12] | Bacterial Biotransformation [13] | Bacterial Biotransformation [14] | Bacterial Biotransformation [15] | Bacterial Biotransformation [16] | Bacterial Biotransformation [17] | Bacterial Biotransformation [18] | Bacterial Biotransformation [19] | Bacterial Biotransformation [20]
CN1CCC(OC(c2ccccc2)c2ccccc2)CC1 | Compound NOT metabolized | Compound metabolized | Compound NOT metabolized | Compound metabolized | Compound NOT metabolized | Compound NOT metabolized | Compound NOT metabolized | Compound metabolized | Compound metabolized | Compound NOT metabolized | Compound NOT metabolized | Compound metabolized | Compound metabolized | Compound metabolized | Compound NOT metabolized | Compound NOT metabolized | Compound metabolized | Compound metabolized | Compound NOT metabolized | Compound NOT metabolized
CCOC(=O)[C@H](CCc1ccccc1)N[C@@H](C)C(=O)N1Cc2ccccc2C[C@H]1C(=O)O | Compound NOT metabolized | Compound NOT metabolized | Compound NOT metabolized | Compound NOT metabolized | Compound NOT metabolized | Compound metabolized | Compound metabolized | Compound metabolized | Compound metabolized | Compound metabolized | Compound metabolized | Compound NOT metabolized | Compound NOT metabolized | Compound metabolized | Compound metabolized | Compound metabolized | Compound metabolized | Compound metabolized | Compound metabolized | Compound metabolized
C#C[C@]1(OC(C)=O)CC[C@H]2[C@@H]3CCC4=C[C@@H](OC(C)=O)CC[C@@H]4[C@H]3CC[C@@]21C [ETHYNODIOL DIACETATE] | Compound metabolized | Compound metabolized | Compound metabolized | Compound metabolized | Compound metabolized | Compound metabolized | Compound metabolized | Compound metabolized | Compound metabolized |  | Compound metabolized |  | Compound metabolized | Compound metabolized | Compound metabolized | Compound metabolized | Compound metabolized | Compound metabolized | Compound metabolized | Compound metabolized
N=C(N)NC(=O)Cc1c(Cl)cccc1Cl [GUANFACINE] | Compound NOT metabolized | Compound NOT metabolized | Compound NOT metabolized |  | Compound NOT metabolized | Compound NOT metabolized | Compound NOT metabolized | Compound NOT metabolized | Compound NOT metabolized | Compound NOT metabolized | Compound NOT metabolized | Compound NOT metabolized | Compound NOT metabolized | Compound NOT metabolized | Compound NOT metabolized | Compound NOT metabolized | Compound NOT metabolized | Compound NOT metabolized | Compound NOT metabolized | Compound NOT metabolized
O=C1N=C([O-])NC1(c1ccccc1)c1ccccc1.[Na+] [PHENYTOIN SODIUM] | Compound NOT metabolized | Compound NOT metabolized |  | Compound NOT metabolized | Compound NOT metabolized | Compound NOT metabolized | Compound NOT metabolized | Compound metabolized | Compound metabolized | Compound NOT metabolized | Compound metabolized | Compound metabolized | Compound metabolized | Compound metabolized | Compound metabolized | Compound NOT metabolized | Compound metabolized | Compound metabolized | Compound metabolized | Compound metabolized
C[C@]12C=CC(=O)C=C1CC[C@@H]1[C@@H]2C(=O)C[C@@]2(C)[C@H]1CC[C@]2(O)C(=O)CO [PREDNISONE] | Compound metabolized | Compound NOT metabolized | Compound metabolized | Compound metabolized | Compound NOT metabolized | Compound metabolized | Compound metabolized | Compound metabolized | Compound metabolized | Compound metabolized | Compound metabolized | Compound NOT metabolized | Compound metabolized |  | Compound metabolized | Compound metabolized | Compound metabolized | Compound metabolized | Compound metabolized | Compound metabolized
CN(C/C=C/C#CC(C)(C)C)Cc1cccc2ccccc12 [TERBINAFINE] | Compound NOT metabolized |  |  | Compound NOT metabolized | Compound NOT metabolized | Compound NOT metabolized | Compound NOT metabolized | Compound metabolized | Compound metabolized |  |  | Compound NOT metabolized | Compound NOT metabolized | Compound NOT metabolized | Compound NOT metabolized | Compound NOT metabolized | Compound NOT metabolized | Compound NOT metabolized |  | Compound NOT metabolized
N#Cc1ccc2[nH]cc(CCCCN3CCN(c4ccc5oc(C(N)=O)cc5c4)CC3)c2c1 [VILAZODONE] | Compound metabolized | Compound NOT metabolized | Compound metabolized | Compound NOT metabolized | Compound metabolized | Compound metabolized | Compound metabolized | Compound metabolized | Compound metabolized | Compound metabolized |  | Compound metabolized |  | Compound metabolized | Compound metabolized | Compound NOT metabolized | Compound metabolized |  | Compound metabolized | Compound metabolized
